Reference: US20260000656A1, “ANTIFUNGAL AGENTS WITH ENHANCED ACTIVITY IN ACIDIC PH” (Scynexis, Inc., priority 2017, published 2026)
Where two headings read alike, the source gives them in different places.

Legend:
C. albicans isolates = assay: Broth microdilution susceptibility (CLSI M27-A3) at different medium pH; format: cell-based, Candida albicans; conditions: Candida albicans, 24 h, pH 7, C. albicans MRL 34449, pH 7.0, 24 hours; read-out: MIC (100% inhibition)
Protocol: (§1) Ten strains each of C. glabrata and C. albicans vaginal isolates were tested. The strains were obtained from recent clinical trial patients with vulvovaginal candidiasis (VVC) prior to treatment. Candida strains were obtained from the Mycology Reference Library (MRL) at Case Western Reserve University School of Medicine, Ohio, United States.
(§2) Susceptibility testing was performed using a broth microdilution method, according to CLSI M27-A3 guidelines (CLSI. 2008. Reference Method for Broth Dilution Antifungal Susceptibility Testing of Yeasts; Approved Standard—Third Edition. Clinical and Laboratory Standards Institute, CLSI document M27-A3). Antifungals and concentrations tested were SCY-078 and micafungin (both at concentrations within the range of 0.015 to 8 μg/ml) and fluconazole (at concentrations within the range of 0.125 to 64 μg/ml). A 0.1-ml C. albicans and C. glabrata inoculum of 0.5-2.5×10^3 blastospores/ml in RPMI 1640 medium was added to each microdilution well. ATCC strains of Candida parapsilosis and Candida krusei QC isolates were also included concurrently to ensure quality control. Antifungal susceptibility testing was carried out for each isolate in RPMI 1640 at pH 7 (to mimic RPMI medium used in testing the susceptibility of yeast by the CLSI M-27A3 document), pH 5.7, and pH 4.5 (to mimic the pH of the vaginal cavity) by adjusting the pH of the media using NaOH or HCl. […] Agents Chemother., 43: 1383-1386 (1999).
(§3) […] SCY-078 powder was manufactured by Avista, Laboratories, NC. Micafungin and fluconazole were sourced from LGM Pharma.

C. glabrata isolates = assay: as above; format: cell-based, Candida glabrata; conditions: for MIC50 / MIC90 / MIC: Nakaseomyces glabratus, 24 h; for MIC50: read-out: MIC50; for MIC90: read-out: MIC90
Protocol: as §1, §2, §3

[1] = pH 4.5, 50% inhibition, pH 4.5, 24 h, 10 vaginal isolates
[2] = pH 4.5, 100% inhibition, pH 4.5, 24 hours, 10 isolates
[3] = pH 5.72, 50% inhibition, pH 5.72, 24 h, 10 vaginal isolates
[4] = pH 5.72, 100% inhibition, pH 5.72, 24 hours, 10 isolates

CC(C)[C@@H](C)[C@@]1(C)CC[C@]2(C)[C@H]3CC[C@@H]4[C@@]5(COC[C@]4(C)[C@@H](OC[C@](C)(N)C(C)(C)C)[C@H](n4ncnc4-c4ccncc4)C5)C3=CC[C@@]2(C)[C@@H]1C(=O)O [SCY-078]
1 µg/mL: MIC range (C. glabrata isolates; 100% inhibition, pH 5.72, 24 hours, 10 isolates) | MIC50 (C. glabrata isolates; [4]) | MIC90 (C. glabrata isolates; [4]) | MIC (C. glabrata isolates; pH 5.72, C. glabrata MRL 32075, pH 5.72, 24 hours, read-out: MIC (100% inhibition)) | MIC (C. glabrata isolates; pH 5.72, C. glabrata MRL 32232, pH 5.72, 24 hours, read-out: MIC (100% inhibition))
0.031 µg/mL: MIC (C. glabrata isolates; pH 4.5, C. glabrata MRL 32993, pH 4.5, 24 hours, read-out: MIC (50% inhibition)) | MIC (C. glabrata isolates; pH 4.5, C. glabrata MRL 33204, pH 4.5, 24 hours, read-out: MIC (50% inhibition)) | MIC (C. glabrata isolates; pH 4.5, C. glabrata MRL 33960, pH 4.5, 24 hours, read-out: MIC (50% inhibition))
0.063 µg/mL: MIC50 (C. glabrata isolates; [1]) | MIC90 (C. glabrata isolates; [1]) | MIC (C. glabrata isolates; pH 4.5, C. glabrata MRL 32075, pH 4.5, 24 hours, read-out: MIC (50% inhibition)) | MIC (C. glabrata isolates; pH 4.5, C. glabrata MRL 32232, pH 4.5, 24 hours, read-out: MIC (50% inhibition)) | MIC (C. glabrata isolates; pH 4.5, C. glabrata MRL 32626, pH 4.5, 24 hours, read-out: MIC (50% inhibition)) | MIC (C. glabrata isolates; pH 4.5, C. glabrata MRL 32993, pH 4.5, 24 hours, read-out: MIC (100% inhibition)) | MIC (C. glabrata isolates; pH 4.5, C. glabrata MRL 33204, pH 4.5, 24 hours, read-out: MIC (100% inhibition)) | MIC (C. glabrata isolates; pH 4.5, C. glabrata MRL 33960, pH 4.5, 24 hours, read-out: MIC (100% inhibition)) | MIC (C. glabrata isolates; pH 4.5, C. glabrata MRL 33961, pH 4.5, 24 hours, read-out: MIC (50% inhibition)) | MIC (C. glabrata isolates; pH 4.5, C. glabrata MRL 33961, pH 4.5, 24 hours, read-out: MIC (100% inhibition)) | MIC (C. glabrata isolates; pH 4.5, C. glabrata MRL 34339, pH 4.5, 24 hours, read-out: MIC (50% inhibition)) | MIC (C. glabrata isolates; pH 4.5, C. glabrata MRL 34407, pH 4.5, 24 hours, read-out: MIC (50% inhibition)) | MIC (C. glabrata isolates; pH 4.5, C. glabrata MRL 34576, pH 4.5, 24 hours, read-out: MIC (50% inhibition))
0.031 to 0.063 µg/mL: MIC range (C. glabrata isolates; 50% inhibition, pH 4.5, 24 h, 10 vaginal isolates)
0.125 µg/mL: MIC50 (C. glabrata isolates; [2]) | MIC90 (C. glabrata isolates; [2]) | MIC (C. glabrata isolates; pH 4.5, C. glabrata MRL 32075, pH 4.5, 24 hours, read-out: MIC (100% inhibition)) | MIC (C. glabrata isolates; pH 4.5, C. glabrata MRL 32232, pH 4.5, 24 hours, read-out: MIC (100% inhibition)) | MIC (C. glabrata isolates; pH 4.5, C. glabrata MRL 32626, pH 4.5, 24 hours, read-out: MIC (100% inhibition)) | MIC (C. glabrata isolates; pH 4.5, C. glabrata MRL 34339, pH 4.5, 24 hours, read-out: MIC (100% inhibition)) | MIC (C. glabrata isolates; pH 4.5, C. glabrata MRL 34407, pH 4.5, 24 hours, read-out: MIC (100% inhibition)) | MIC (C. glabrata isolates; pH 4.5, C. glabrata MRL 34576, pH 4.5, 24 hours, read-out: MIC (100% inhibition))
1 to 2 µg/mL: MIC range (C. glabrata isolates; 100% inhibition, pH 7.0, 24 hours, 10 isolates)
16 fold: reduction in MIC50 at pH 4.5 compared to the MIC50 at pH 7.0 (C. glabrata isolates; C. glabrata isolates)
0.5 µg/mL: MIC (C. albicans isolates) | MIC range (C. glabrata isolates; 50% inhibition, pH 5.72, 24 h, 10 vaginal isolates) | MIC50 (C. glabrata isolates; [3]) | MIC90 (C. glabrata isolates; [3]) | MIC (C. glabrata isolates; pH 5.72, C. glabrata MRL 32075, pH 5.72, 24 hours, read-out: MIC (50% inhibition)) | MIC (C. glabrata isolates; pH 5.72, C. glabrata MRL 32232, pH 5.72, 24 hours, read-out: MIC (50% inhibition))
0.063 to 0.125 µg/mL: MIC range (C. glabrata isolates; 100% inhibition, pH 4.5, 24 hours, 10 isolates)
0.5 to 1 µg/mL: MIC range (C. glabrata isolates; 50% inhibition, pH 7.0, 24 h, 10 vaginal isolates)
